# In patent publication US20160015670A1, “COMPOUND, 1-PALMITIN-2-LINOLEIN-3-OLEIN, AND PHARMACEUTICAL PREPARATION AND USE THEREOF” (priority 2014, published 2016):
# Key:
# Assay in all cases: MTT method in vitro, inhibition of cell growth
# Assay type in all cases: cell-based
# [1] = tested on: BGC-823 (human gastric cancer cells); details: BGC-823, MTT, 48 h
# Text: (§1) (1) Cell lines: PANC-1 (human pancreatic cancer cells), SKOV3 (human ovarian cancer cells), MCF-7 (human breast cancer cells), SMMC-7721 (human liver cancer cells), A549 (human lung cancer cells), BGC-823 (human gastric cancer cells), COLO205 (human colonic cancer cells), storaged and passaged maintainably in Research and Evaluation Center for Pharmacology, Shanghai Institute of Pharmaceutical Industry;
# (§2) The inhibition effects of the compound of formula (I) on the above-mentioned cell lines were detected by using MTT method. The specific procedures were as follows:
# (§3) (1) Cell culture: (a) Storaged cells were taken out from the liquid nitrogen, thawed quickly in a 37 water bath, then aseptically transferred into 6 ml of cellular medium in a 10 ml centrifugal tube, centrifuged at 1000 rpm for 5 min. The supernatant was discarded, then the precipitated cells were re-suspended in 5-6 ml cellular media by pipetting and transferred into a flask in a 37 incubator for cell culture; (b) Next day, the flask was taken out from the incubator and the used medium was discarded, then the cells were incubated in 5-6 ml fresh medium in the 37 incubator; (c) On the third day, the flask was taken out from the incubator and the used medium was discarded, then 2-3 ml of PBS (pH7.4) was added into the flask with rocking for cleaning it and the used PBS was discarded. Such a cellular cleaning step was repeated once again. 3-5 drops of 0.25% trypsin solution were added into the flask with sloshing, thus well-distributed in it. The flask was capped and placed in a 37 incubator for about 3 min, and the separation of cells from the flask wall was observed under the microscope. 2 ml of cellular medium was added and cells were separated completely from the flask wall by pipetting, then the cell suspension was transferred into 2 separate clean flasks, each containing 5-6 ml medium. The cell suspension was well-distributed by pipetting, then the flask was placed in a 37 incubator. (d) Step (c) was repeated every other day. […]
# (§4) (4) Cells in a logarithmic growth stage were trypsinized and washed, then re-suspended in the medium containing 10% calf serum. The number of living cells was counted in Trypan blue dye exclusion method and cell suspensions were adjusted into a density of 2×10^5 cell/ml. […]
# (§5) (7) 100 μl of crystal dissolving solution was added into each well and cells were incubated continuously in the incubator overnight, so as to dissolve the resulted formazan crystals sufficiently. Then, the absorbance value was measured at 570 nm for each well.
# (§6) (8) Based on absorbance values, inhibition rates on the cell growth were calculated for sample groups of various concentrations. […]
# (§7) (1−mean absorbance of experimental wells/mean absorbance of control wells)×100%
# [2] = tested on: COLO205 (human colonic cancer cells); details: COLO 205, 48 h
# Text: as §1, §2, §3, §4, §5, §6, §7
# [3] = tested on: PANC-1 (human pancreatic cancer cells); details: PANC-1, MTT, 48 h
# Text: as §1, §2, §3, §4, §5, §6, §7
# [4] = tested on: SMMC-7721 (human liver cancer cells); details: SMMC-7721, MTT, 48 h
# Text: as §1, §2, §3, §4, §5, §6, §7
smiles,measurement,setting,value
"CC(=O)O[C@H]1C(=O)[C@@]2(C)[C@H]([C@H](OC(=O)c3ccccc3)[C@]3(O)C[C@H](OC(=O)[C@H](O)[C@@H](NC(=O)c4ccccc4)c4ccccc4)C(C)=C1C3(C)C)[C@]1(OC(C)=O)CO[C@@H]1C[C@@H]2O [Taxol, reference compound]",IC50,[1],0.24 µg/mL
same,IC50,[2],0.75 µg/mL
same,IC50,[3],0.44 µg/mL
same,IC50,[4],0.12 µg/mL
